From ChEMBL document CHEMBL4020808, “Inhibitors of DNA Gyrase-GyrB Subunit and/or Topoisomerase IV-ParE Subunit May Treat Infectious Diseases Caused by Antibiotic-Resistant Bacteria” (2017) come the findings set out here.

SMILES strings stand for the structures. ≈ marks a conversion by molar mass, not a printed value.

The first test concerns Enterococcus faecalis. Put plainly: Antimicrobial activity against Enterococcus faecalis ATCC 29212 after 20 hrs by broth microdilution method. The class given is functional. Particulars: ATCC 29212, 20 h. (In general: Dilution methods test growth across graded concentrations, often in twofold steps.)
`CCc1[nH]c(C(=O)N[C@@H]2CCN(c3nnc([C@H](C)O)s3)C[C@@H]2OC)nc1Cl` showed an MIC of 0.25 µg/mL (≈ 0.603 µM).
On to `CCc1[nH]c(C(=O)N[C@@H]2CCN(c3nnc(C(C)(C)O)s3)C[C@@H]2OC)nc1Cl`, for which the MIC was 0.25 µg/mL (≈ 0.583 µM).
In turn, `CCO[C@H]1CN(c2nnc(C(C)O)s2)CC[C@H]1NC(=O)c1nc(Cl)c(CC)[nH]1` (some centres undefined) yielded an MIC of 0.25 µg/mL (≈ 0.583 µM).
In turn, `CCc1[nH]c(C(=O)N[C@@H]2CCN(c3nnc([C@@H](C)O)s3)C[C@@H]2OC)nc1Cl` came in with an MIC of 0.25 µg/mL (≈ 0.603 µM).

Another test has as its system Haemophilus influenzae. Put plainly: Antimicrobial activity against Haemophilus influenzae ATCC 49247 after 20 hrs by broth microdilution method. The conditions noted are these: ATCC 49247, 20 h. It counts as functional.
As to `CCc1[nH]c(C(=O)N[C@@H]2CCN(c3nnc([C@H](C)O)s3)C[C@@H]2OC)nc1Cl`, the MIC worked out at 1 µg/mL (≈ 2.41 µM).
Consider `CCc1[nH]c(C(=O)N[C@@H]2CCN(c3nnc(C(C)(C)O)s3)C[C@@H]2OC)nc1Cl`, for which the MIC stood at 0.5 µg/mL (≈ 1.17 µM).
`CCO[C@H]1CN(c2nnc(C(C)O)s2)CC[C@H]1NC(=O)c1nc(Cl)c(CC)[nH]1` (some centres undefined): the MIC was determined as 2 µg/mL (≈ 4.66 µM).
`CCc1[nH]c(C(=O)N[C@@H]2CCN(c3nnc([C@@H](C)O)s3)C[C@@H]2OC)nc1Cl` displayed an MIC of 1 µg/mL (≈ 2.41 µM).

In a further test the test system is Streptococcus pneumoniae. Put plainly: Antimicrobial activity against Streptococcus pneumoniae ATCC 49619 after 20 hrs by broth microdilution method. The conditions noted are these: ATCC 49619, 20 h. It counts as functional.
`CCc1[nH]c(C(=O)N[C@@H]2CCN(c3nnc([C@H](C)O)s3)C[C@@H]2OC)nc1Cl` yielded an MIC of 0.25 µg/mL (≈ 0.603 µM).
`CCc1[nH]c(C(=O)N[C@@H]2CCN(c3nnc(C(C)(C)O)s3)C[C@@H]2OC)nc1Cl` had an MIC of 0.25 µg/mL (≈ 0.583 µM).
Molecule `CCO[C@H]1CN(c2nnc(C(C)O)s2)CC[C@H]1NC(=O)c1nc(Cl)c(CC)[nH]1` (some centres undefined) gave an MIC of 0.25 µg/mL (≈ 0.583 µM).
Still for that read-out and setting: the same measure for `CCc1[nH]c(C(=O)N[C@@H]2CCN(c3nnc([C@@H](C)O)s3)C[C@@H]2OC)nc1Cl`: 0.25 µg/mL (≈ 0.603 µM).

The subject of another test is Staphylococcus aureus. Briefly: Antimicrobial activity against Staphylococcus aureus ATCC 29213 after 20 hrs by broth microdilution method. The class given is functional. The conditions noted are these: ATCC 29213, 20 h.
Regarding `CCc1[nH]c(C(=O)N[C@@H]2CCN(c3nnc([C@H](C)O)s3)C[C@@H]2OC)nc1Cl`, the MIC amounted to 0.5 µg/mL (≈ 1.21 µM).
Same read-out and setting: the same measure for `CCc1[nH]c(C(=O)N[C@@H]2CCN(c3nnc(C(C)(C)O)s3)C[C@@H]2OC)nc1Cl`: 0.25 µg/mL (≈ 0.583 µM); for `CCO[C@H]1CN(c2nnc(C(C)O)s2)CC[C@H]1NC(=O)c1nc(Cl)c(CC)[nH]1` (some centres undefined): 0.5 µg/mL (≈ 1.17 µM).
`CCc1[nH]c(C(=O)N[C@@H]2CCN(c3nnc([C@@](C)(O)CO)s3)C[C@@H]2OC)nc1Cl` displayed an MIC of 1 µg/mL (≈ 2.25 µM).
Turning to `CCc1[nH]c(C(=O)N[C@@H]2CCN(c3nnc([C@@H](C)O)s3)C[C@@H]2OC)nc1Cl`, the MIC stood at 0.5 µg/mL (≈ 1.21 µM).
`CCc1[nH]c(C(=O)N[C@@H]2CCN(c3nnc([C@@H](O)CO)s3)C[C@@H]2OC)nc1Cl` gave an MIC of 4 µg/mL (≈ 9.28 µM).

The test system of a further test is Clostridioides difficile. Briefly: Antimicrobial activity against Clostridioides difficile ATCC 43255 under anaerobic condition for 42 to 48 hrs by agar dilution method.
Settings: not given
It counts as functional.
The molecule `CCc1[nH]c(C(=O)N[C@@H]2CCN(c3nnc([C@H](C)O)s3)C[C@@H]2OC)nc1Cl` yielded an MIC of 0.125 µg/mL (≈ 0.301 µM).
Molecule `CCc1[nH]c(C(=O)N[C@@H]2CCN(c3nnc(C(C)(C)O)s3)C[C@@H]2OC)nc1Cl` returned an MIC of 0.06 µg/mL (≈ 0.14 µM).
On to `CCO[C@H]1CN(c2nnc(C(C)O)s2)CC[C@H]1NC(=O)c1nc(Cl)c(CC)[nH]1` (some centres undefined), for which the MIC was determined as 0.03 µg/mL (≈ 0.0699 µM).
The same measure, in the same setting: the same measure for `CCc1[nH]c(C(=O)N[C@@H]2CCN(c3nnc([C@@](C)(O)CO)s3)C[C@@H]2OC)nc1Cl`: 0.06 µg/mL (≈ 0.135 µM); for `CCc1[nH]c(C(=O)N[C@@H]2CCN(c3nnc([C@@H](C)O)s3)C[C@@H]2OC)nc1Cl`: 0.06 µg/mL (≈ 0.145 µM).
Turning to `CCc1[nH]c(C(=O)N[C@@H]2CCN(c3nnc([C@@H](O)CO)s3)C[C@@H]2OC)nc1Cl`, the MIC stood at 0.125 µg/mL (≈ 0.29 µM).
